Key:
[1] = tested on: lambsquarter (Chenopodium album); experiment: Postemergence herbicidal activity; format: in vivo; settings: Chenopodium album, post-emergence, 336 h, post-emergent, 140 g ai/ha, after 14 days; read-out: % Control CHEAL
Method: (§1) Seeds or nutlets of the desired test plant species were planted in Sun Gro MetroMix® 306 planting mixture, which typically has a pH of 6.0 to 6.8 and an organic matter content of about 30 percent, in plastic pots with a surface area of 64 square centimeters. When required to ensure good germination and healthy plants, a fungicide treatment and/or other chemical or physical treatment was applied. The plants were grown for 7-21 days in a greenhouse with an approximate 15 hour photoperiod which was maintained at about 23-29° C. during the day and 22-28° C. during the night. Nutrients and water were added on a regular basis and supplemental lighting was provided with overhead metal halide 1000-Watt lamps as necessary. The plants were employed for testing when they reached the first or second true leaf stage. […] The concentrated stock solutions obtained were diluted with 20 mL of an aqueous mixture containing acetone, water, isopropyl alcohol, DMSO, Atplus 411F crop oil concentrate, and Triton® X-155 surfactant in a 48.5:39:10:1.5:1.0:0.02 v/v ratio to obtain spray solutions containing the highest application rates. […] Compound requirements are based upon a 12 mL application volume at a rate of 187 L/ha. Formulated compounds were applied to the plant material with an overhead Mandel track sprayer equipped with a […] nozzles calibrated to deliver 187 L/ha over an application area of 0.503 square meters at a spray height of 18 inches (43 cm) above the average plant canopy height. Control plants were sprayed in the same manner with the solvent blank. The treated plants and control plants were placed in a greenhouse as described above and watered by sub-irrigation to prevent wash-off of the test compounds. […] By applying the well-accepted probit analysis as described by J. Berkson in Journal of the American Statistical […], 48, 565 (1953) and by D.

[2] = tested on: redroot pigweed (Amaranthus retroflexus); experiment: Postemergence herbicidal activity; format: in vivo; settings: Amaranthus retroflexus, post-emergence, 336 h, post-emergent, 140 g ai/ha, after 14 days; read-out: % Control AMARE
Method: as §1

[3] = tested on: velvetleaf (Abutilon theophrasti); experiment: Postemergence herbicidal activity; format: in vivo; settings: Abutilon theophrasti, post-emergence, 336 h, post-emergent, 140 g ai/ha, after 14 days; read-out: % Control ABUTH
Method: as §1

Row | melting point | Structure (SMILES) | pest or weed control at 140 g/ha [1] | pest or weed control at 140 g/ha [2] | pest or weed control at 140 g/ha [3]
1 | 122 to 123 °C | COCOc1c(Cl)ccc(-c2cc(NC(C)=O)c(Cl)c(C(=O)OC)n2)c1F [Compound 34, 4-Acetylamino-3-chloro-6-(4-chloro-2-fluoro-3-methoxymethoxy-phenyl)pyridine-2-carboxylic acid, methyl ester] |  |  | 
2 | 144 to 144.5 °C | COC(=O)c1nc(-c2c(F)cc(Cl)c(OC)c2F)cc(NC(C)=O)c1Cl [Compound 40, 4-Acetylamino-3-chloro-6-(4-chloro-2,6-difluoro-3-methoxyphenyl)pyridine-2-carboxylic acid, methyl ester] | 100% | 95% | 95%
3 | 129 to 130 °C | COC(=O)c1nc(-c2ccc(F)c(C)c2F)cc(N)c1Cl [Compound 47, 4-Amino-3-chloro-6-(2,4-difluoro-3-methylphenyl)pyridine-2-carboxylic acid methyl ester] | 100% | 100% | 100%
4 | 163 to 164 °C | COC(=O)c1nc(-c2ccc(F)c(F)c2F)cc(N)c1Cl [Compound 67, 4-Amino-3-chloro-6-(2,3,4-trifluorophenyl)pyridine-2-carboxylic acid, methyl ester] | 100% | 100% | 100%
5 | 99 °C | COCOc1c(Cl)ccc(-c2cc(N)c(Cl)c(C(=O)OC)n2)c1F [Compound 68, 4-Amino-3-chloro-6-(4-chloro-2-fluoro-3-methoxymethoxyphenyl)pyridine-2-carboxylic acid, methyl ester] | 100% | 100% | 95%
6 | 164 °C | COC(=O)c1nc(-c2ccc(Cl)c(OC(F)F)c2F)cc(N)c1Cl [Compound 69, 4-Amino-3-chloro-6-(4-chloro-2-fluoro-3-difluoromethoxyphenyl)pyridine-2-carboxylic acid, methyl ester] | 100% | 100% | 100%
7 | 134 to 136 °C | COC(=O)c1nc(-c2ccc(C(F)F)c(OC)c2Cl)cc(N)c1Cl [Compound 79, 4-Amino-3-chloro-6-(2-chloro-4-difluoromethyl-3-methoxyphenyl)pyridine-2-carboxylic acid, methyl ester] | 100% | 90% | 95%
8 | 158 to 159 °C | CCOc1c(F)ccc(-c2cc(N)c(Cl)c(C(=O)OC)n2)c1F [Compound 80, 4-Amino-3-chloro-6-(2,4-difluoro-3-ethoxyphenyl)pyridine-2-carboxylic acid, methyl ester] | 95% | 100% | 100%
9 | 135 to 136.5 °C | COC(=O)c1nc(-c2ccc(Cl)c(C3CC3)c2F)cc(N)c1Cl [Compound 81, 4-Amino-3-chloro-6-(4-chloro-3-cyclopropyl-2-fluorophenyl)pyridine-2-carboxylic acid, methyl ester] | 95% | 100% | 100%
10 | 104 to 105 °C | COC(=O)c1nc(-c2sc(F)c(CF)c2Cl)cc(N)c1Cl [Compound 85, 4-amino-3-chloro-6-(4-chloro-2-fluoro-3-fluoromethylthiophenyl)pyridine-2-carboxylic acid methyl ester] |  |  | 
11 | 170 to 172 °C (dec.) | Cc1c(Cl)ccc(-c2cc(N)c(Cl)c(C(=O)O)n2)c1Cl [Compound 98, 4-Amino-3-chloro-6-(2,4-dichloro-3-methylphenyl)pyridine-2-carboxylic acid] | 80% | 70% | 90%
12 | 182 to 183 °C (dec.) | Nc1cc(-c2ccc(Cl)c(C(F)F)c2F)nc(C(=O)O)c1Cl [Compound 106, 4-Amino-3-chloro-6-(4-chloro-2-fluoro-3-difluoromethylphenyl)pyridine-2-carboxylic acid] | 90% | 100% | 90%
13 | 178 to 179 °C (dec.) | CCOc1cc(-c2cc(N)c(Cl)c(C(=O)O)n2)c(F)cc1Cl [Compound 109, 4-Amino-3-chloro-6-(4-chloro-2-fluoro-5-ethoxyphenyl)pyridine-2-carboxylic acid] |  |  | 
14 | 192 to 193 °C (dec.) | CCc1c(Cl)ccc(-c2cc(N)c(Cl)c(C(=O)O)n2)c1F [Compound 128, 4-Amino-3-chloro-6-(4-chloro-3-ethyl-2-fluorophenyl)pyridine-2-carboxylic acid] |  |  | 
15 | 159 °C (dec.) | COCOc1c(Cl)ccc(-c2cc(N)c(Cl)c(C(=O)O)n2)c1F [Compound 132, 4-Amino-3-chloro-6-(4-chloro-2-fluoro-3-methoxymethoxyphenyl)pyridine-2-carboxylic acid] |  |  | 

More lines, now with the values behind:

Row | Structure (SMILES) | melting point | pest or weed control at 140 g/ha [1] | pest or weed control at 140 g/ha [2] | pest or weed control at 140 g/ha [3]
16 | COC(=O)c1nc(-c2ccc(Cl)c(C#N)c2F)cc(N)c1Cl [Compound 2, 4-Amino-3-chloro-6-(4-chloro-3-cyano-2-fluorophenyl)pyridine-2-carboxylic acid methyl ester] | 189 to 190 °C | 80% | 90% | 85%
17 | COC(=O)c1nc(-c2ccc(Cl)c(OCC(F)F)c2F)cc(N)c1Cl [Compound 8, 4-Amino-3-chloro-6-[4-chloro-2-fluoro-3-(2,2-difluoroethoxy)phenyl]pyridine-2-carboxylic acid methyl ester] | 134 to 136 °C | 95% | 100% | 80%
18 | CCOc1cc(-c2cc(N)c(Cl)c(C(=O)OC)n2)c(F)cc1Cl [Compound 9, 4-Amino-3-chloro-6-(4-chloro-2-fluoro-5-ethoxyphenyl)pyridine-2-carboxylic acid methyl ester] | 115 to 116 °C | 100% | 100% | 85%
19 | COCCOc1c(Cl)ccc(-c2cc(N)c(Cl)c(C(=O)OC)n2)c1F [Compound 11, 4-Amino-3-chloro-6-[4-chloro-2-fluoro-3-(methoxyethoxy)phenyl]pyridine-2-carboxylic acid methyl ester] | 89 to 90 °C | 80% | 95% | 90%
20 | COC(=O)c1nc(-c2ccc(Cl)c(OC)c2F)cc(NC(C)=O)c1Cl [Compound 20, 4-Acetylamino-3-chloro-6-(4-chloro-2-fluoro-3-methoxyphenyl)pyridine-2-carboxylic acid methyl ester] | 159 to 160 °C |  |  | 
21 | COC(=O)c1nc(-c2ccc(F)c(C)c2F)cc(NC(C)=O)c1Cl [Compound 23, 4-acetylamino-3-chloro-6-(2,4-difluoro-3-methylphenyl)-pyridine-2-carboxylic acid methyl ester] | 152 to 153 °C |  |  | 
22 | COC(=O)c1nc(-c2ccc(Cl)c(C)c2Cl)cc(NC(C)=O)c1Cl [Compound 24, 4-Acetylamino-3-chloro-6-(2,4-dichloro-3-methylphenyl)pyridine-2-carboxylic acid methyl ester] | 172 to 174 °C |  |  | 
23 | COC(=O)c1nc(-c2ccc(Cl)c(C(F)F)c2Cl)cc(NC(C)=O)c1Cl [Compound 30, 4-Acetylamino-3-chloro-6-[2,4-dichloro-3-(difluoromethyl)phenyl]pyridine-2-carboxylic acid, methyl ester] | 152 to 153 °C | 95% | 90% | 100%
24 | COC(=O)c1nc(-c2ccc(F)c(F)c2F)cc(NC(C)=O)c1Cl [Compound 33, 4-Acetylamino-3-chloro-6-(2,3,4-trifluorophenyl)pyridine-2-carboxylic acid, methyl ester] | 169 to 171 °C | 90% | 95% | 95%
25 | CCCCOc1c(Cl)ccc(-c2cc(N)c(Cl)c(C(=O)O)n2)c1F [Compound 124, 4-Amino-3-chloro-6-(4-chloro-3-butoxy-2-fluorophenyl)pyridine-2-carboxylic acid] | 157 to 158 °C (dec.) |  |  | 

From patent US20070179060A1, “6-(Poly-substituted aryl)-4-aminopicolinates and their use as herbicides” (priority 2006, published 2007)
